Measured values taken from the supplement of paper PMC10307832.

What was measured:
Experiment in all cases: relative viability (nuclei count vs DMSO), 5 days (fraction); higher = more cells survive
[1] = compound: CS(=O)(=O)N1CCN(Cc2cc3nc(-c4cccc5[nH]ncc45)nc(N4CCOCC4)c3s2)CC1 [Pictilisib] + CC1(C)CCC(c2ccc(Cl)cc2)=C(CN2CCN(c3ccc(C(=O)NS(=O)(=O)c4ccc(N[C@H](CCN5CCOCC5)CSc5ccccc5)c(S(=O)(=O)C(F)(F)F)c4)cc3)CC2)C1 [Navitoclax] (partner 0.5 µM)
Method in brief: (§1)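 Relative viability is defined as nuclei in treated wells over nuclei in vehicle wells. Duplicate plates were run and medians reported. Lung cancer cell lines in 1536-well plates were dosed by pin tool one day after seeding, with one drug or with a fixed anchor-drug dose plus five library-drug doses (not always all listed) in √10 steps, and nuclei were counted after 5 days.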

[2] = compound: CS(=O)(=O)N1CCN(Cc2cc3nc(-c4cccc5[nH]ncc45)nc(N4CCOCC4)c3s2)CC1 [Pictilisib] + Cc1nc(Nc2ncc(C(=O)Nc3c(C)cccc3Cl)s2)cc(N2CCN(CCO)CC2)n1 [Dasatinib] (partner 0.075 µM)
Method in brief: as §1

[3] = compound: CS(=O)(=O)N1CCN(Cc2cc3nc(-c4cccc5[nH]ncc45)nc(N4CCOCC4)c3s2)CC1 [Pictilisib] + Nc1nc2[nH]cc(CCc3ccc(C(=O)N[C@@H](CCC(=O)O)C(=O)O)cc3)c2c(=O)[nH]1 [Pemetrexed] (partner 0.2 µM)
Method in brief: as §1

[4] = compound: CS(=O)(=O)N1CCN(Cc2cc3nc(-c4cccc5[nH]ncc45)nc(N4CCOCC4)c3s2)CC1 [Pictilisib] + O=C(c1cc(Cc2n[nH]c(=O)c3ccccc23)ccc1F)N1CCN(C(=O)C2CC2)CC1 [Olaparib] (partner 8 µM)
Method in brief: as §1

[5] = compound: NC1(c2ccc(-c3nc4ccn5c(=O)[nH]nc5c4cc3-c3ccccc3)cc2)CCC1 [MK-2206] + NC(=O)Nc1cc(-c2cccc(F)c2)sc1C(=O)N[C@H]1CCCNC1 [AZD7762] (partner 0.2 µM)
Method in brief: as §1

Row | Cell Line | relative viability ([1]; first compound 0.02 µM) | relative viability ([1]; first compound 0.06325 µM) | relative viability ([1]; first compound 0.6325 µM) | relative viability ([1]; first compound 2 µM) | relative viability ([2]; first compound 0.02 µM) | relative viability ([2]; first compound 0.06325 µM) | relative viability ([2]; first compound 0.6325 µM) | relative viability ([2]; first compound 2 µM) | relative viability ([3]; first compound 0.02 µM) | relative viability ([3]; first compound 0.06325 µM) | relative viability ([3]; first compound 0.6325 µM) | relative viability ([3]; first compound 2 µM) | relative viability ([4]; first compound 0.02 µM) | relative viability ([4]; first compound 0.06325 µM) | relative viability ([4]; first compound 0.6325 µM) | relative viability ([4]; first compound 2 µM) | relative viability ([5]; first compound 0.01 µM) | relative viability ([5]; first compound 0.03162 µM) | relative viability ([5]; first compound 0.3162 µM) | relative viability ([5]; first compound 1 µM)
1 | LK-2 | 0.879 | 0.585 | 0.63 | 0.321 | 0.278 | 0.324 | 0.185 | 0.185 | 0.247 | 0.281 | 0.116 | 0.14 | 0.523 | 0.588 | 0.485 | 0.304 | 0.325 | 0.312 | 0.259 | 0.182
2 | HCC-827 | 1.11 | 0.978 | 1.02 | 0.865 | 0.357 | 0.242 | 0.183 | 0.136 | 0.265 | 0.28 | 0.196 | 0.221 | 0.795 | 0.512 | 0.433 | 0.284 | 0.325 | 0.184 | 0.227 | 0.186
3 | EPLC-272H | 1.32 | 1.05 | 1.01 | 0.733 | 0.304 | 0.323 | 0.216 | 0.142 | 0.297 | 0.342 | 0.231 | 0.185 | 0.773 | 0.731 | 0.36 | 0.241 | 0.23 | 0.185 | 0.202 | 0.175
4 | NCI-H1395 | 1.17 | 1.27 | 0.99 | 0.6 | 0.406 | 0.392 | 0.296 | 0.265 | 1.01 | 0.905 | 0.745 | 0.373 | 0.514 | 0.439 | 0.367 | 0.367 | 0.407 | 0.369 | 0.388 | 0.351
5 | NCI-H2085 | 1.08 | 1.17 | 0.864 | 0.416 | 0.241 | 0.22 | 0.198 | 0.18 | 0.826 | 0.911 | 0.401 | 0.303 | 0.764 | 0.823 | 0.586 | 0.353 | 0.85 | 0.954 | 0.918 | 0.769
6 | NCI-H2087 | 1.04 | 0.945 | 0.943 | 0.674 | 0.672 | 0.822 | 0.632 | 0.691 | 0.7 | 0.736 | 0.612 | 0.553 | 0.537 | 0.477 | 0.493 | 0.345 | 0.809 | 1.34 | 1.4 | 1.33
7 | NCI-H322M | 1.23 | 1.22 | 0.956 | 1.14 | 0.226 | 0.253 | 0.271 | 0.243 | 0.541 | 0.616 | 0.584 | 0.239 | 0.76 | 0.838 | 0.756 | 0.525 | 0.58 | 0.576 | 0.563 | 0.516
8 | NCI-H1734 | 0.797 | 0.874 | 0.554 | 0.264 | 0.451 | 0.424 | 0.281 | 0.182 | 0.39 | 0.417 | 0.39 | 0.355 | 0.582 | 0.581 | 0.477 | 0.215 | 0.576 | 0.244 | 0.471 | 0.399
9 | EKVX | 0.971 | 0.958 | 0.675 | 0.377 | 0.534 | 0.414 | 0.303 | 0.16 | 0.371 | 0.354 | 0.366 | 0.221 | 0.962 | 0.828 | 0.777 | 0.406 | 0.738 | 0.886 | 0.751 | 0.704
10 | NCI-H596 | 0.736 | 0.835 | 0.645 | 0.206 | 0.569 | 0.537 | 0.325 | 0.207 | 0.472 | 0.508 | 0.509 | 0.318 | 0.621 | 0.642 | 0.567 | 0.338 | 1.16 | 1.06 | 1.05 | 1.01
11 | NCI-H1975 | 1.02 | 0.936 | 0.707 | 0.314 | 0.368 | 0.242 | 0.105 | 0.144 | 0.304 | 0.301 | 0.272 | 0.193 | 0.764 | 0.818 | 0.523 | 0.248 | 0.745 | 0.748 | 0.595 | 0.582
12 | NCI-H2170 | 0.619 | 0.487 | 0.452 | 0.231 | 0.544 | 0.754 | 0.522 | 0.343 | 0.268 | 0.273 | 0.249 | 0.228 | 0.608 | 0.508 | 0.562 | 0.33 | 0.874 | 0.765 | 0.812 | 0.837
13 | NCI-H1666 | 0.972 | 0.835 | 0.62 | 0.438 | 0.805 | 0.876 | 0.568 | 0.523 | 0.947 | 0.846 | 0.737 | 0.725 | 0.751 | 0.762 | 0.813 | 0.756 | 0.808 | 0.858 | 0.962 | 0.806
14 | PC-3 [JPC-3] | 0.758 | 0.749 | 0.803 | 0.496 | 0.965 | 1.02 | 1.03 | 0.555 | 1.22 | 1.24 | 0.872 | 0.579 | 1.24 | 1.31 | 1.21 | 0.754 | 0.881 | 0.849 | 0.774 | 0.334
15 | NCI-H1755 | 1.01 | 1 | 0.889 | 0.571 | 0.406 | 0.415 | 0.246 | 0.187 | 0.472 | 0.397 | 0.396 | 0.329 | 0.872 | 0.84 | 0.806 | 0.403 | 0.508 | 0.328 | 0.458 | 0.432
16 | RERF-LC-KJ | 0.93 | 0.728 | 0.91 | 0.5 | 0.802 | 0.811 | 0.687 | 0.451 | 0.459 | 0.478 | 0.448 | 0.404 | 0.925 | 0.834 | 0.784 | 0.578 | 0.915 | 1.15 | 0.84 | 1.01
17 | NCI-H647 | 1.27 | 1.03 | 0.928 | 0.351 | 0.195 | 0.172 | 0.108 | 0.0934 | 0.172 | 0.175 | 0.143 | 0.141 | 0.661 | 0.659 | 0.411 | 0.219 | 0.46 | 0.356 | 0.521 | 0.473
18 | BEN | 0.0665 | 0.0632 | 0.0606 | 0.0433 | 0.351 | 0.3 | 0.355 | 0.285 | 0.809 | 0.858 | 0.81 | 0.546 | 1.03 | 1.11 | 1.02 | 0.978 | 0.729 | 0.621 | 0.713 | 0.601
19 | 201T | 1.23 | 1.18 | 1.24 | 0.792 | 0.552 | 0.506 | 0.464 | 0.276 | 0.301 | 0.352 | 0.289 | 0.276 | 0.844 | 0.815 | 0.811 | 0.604 | 0.663 | 0.431 | 0.649 | 0.599
20 | LC-2-ad | 0.606 | 0.415 | 0.17 | 0.143 | 0.739 | 0.516 | 0.248 | 0.177 | 0.277 | 0.278 | 0.272 | 0.23 | 0.745 | 0.758 | 0.788 | 0.656 | 0.815 | 0.868 | 0.889 | 0.782
21 | LCLC-97TM1 | 0.288 | 0.768 | 0.221 | 0.107 | 0.8 | 0.919 | 0.781 | 0.602 | 0.155 | 0.169 | 0.169 | 0.147 | 0.446 | 0.379 | 0.289 | 0.112 | 0.294 | 0.12 | 0.285 | 0.333
22 | NCI-H1915 | 0.811 | 0.789 | 0.797 | 0.789 | 0.326 | 0.317 | 0.304 | 0.286 | 0.548 | 0.524 | 0.464 | 0.394 | 0.257 | 0.277 | 0.28 | 0.225 | 0.74 | 0.573 | 0.735 | 0.576
23 | NCI-H3122 | 0.986 | 1.04 | 0.966 | 0.475 | 0.876 | 0.926 | 0.54 | 0.179 | 0.189 | 0.196 | 0.192 | 0.172 | 0.603 | 0.659 | 0.595 | 0.329 | 0.936 | 1.04 | 0.979 | 0.91
24 | NCI-H1993 | 0.943 | 0.845 | 0.664 | 0.637 | 0.508 | 0.467 | 0.483 | 0.58 | 0.608 | 0.605 | 0.449 | 0.442 | 0.964 | 0.94 | 0.763 | 0.388 | 0.804 | 0.864 | 0.483 | 0.475
25 | NCI-H2405 | 0.981 | 0.871 | 0.594 | 0.5 | 0.231 | 0.217 | 0.189 | 0.168 | 1.3 | 1.01 | 0.778 | 0.416 | 0.871 | 0.867 | 0.735 | 0.422 | 0.824 | 0.769 | 0.838 | 0.534
